Broadly, the EC50 is the concentration that produces a half-maximal response. By IC50 is commonly meant the concentration that inhibits the measured activity by half. A lower IC50 goes with higher potency.

The subject of assay [1] is NQO1 mRNA in BEAS-2B cells. The assay is described as follows: Beas2B NQO1 mRNA cell based assay. Also noted: species or system human. The following applies: Homo sapiens, BEAS-2B, 24 h, 24 h compound treatment, increase in NQO1 mRNA vs vehicle (0.1% DMSO), read-out: EC50. Summed up:
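Relative NQO1 transcript level derived by ΔΔCT with human β-actin as internal control, using direct-lysate one-step RT-qPCR. Cells were BEAS-2B, plated overnight then treated with compound for 24 h.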

Assay [2] deals with human KEAP1 (N-term, residues 321-609) (Homo sapiens, UniProt Q14145). The assay is described as follows: biochemical.
human KEAP1 (N-term, residues 321-609), sequence (Q14145 321-609): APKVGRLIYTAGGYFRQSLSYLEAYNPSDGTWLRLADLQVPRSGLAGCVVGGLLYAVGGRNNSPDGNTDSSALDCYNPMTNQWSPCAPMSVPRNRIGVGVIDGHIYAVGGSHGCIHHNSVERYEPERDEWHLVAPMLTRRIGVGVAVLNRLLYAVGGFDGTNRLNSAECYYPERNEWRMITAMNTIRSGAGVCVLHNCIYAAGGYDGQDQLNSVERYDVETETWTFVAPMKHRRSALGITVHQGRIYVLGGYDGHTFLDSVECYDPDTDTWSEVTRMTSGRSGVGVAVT
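Throughout, for IC50: fluorescence polarization competition assay of Kelch domain binding to NRF2, 12-point 1:3 dilution series from 10 µM, read after 1 h at room temperature, floor 10 nM.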

Take `Cc1scnc1COc1ccc(Cl)c2c1[C@@H](CN1CC3(CC3)CC1=O)N(C(=O)[C@@H]1CCCC[C@]1(C)C(=O)O)CC2` [Example 205, (1S,2R)-2-((S)-5-chloro-8-((5-methylthiazol-4-yl)methoxy)-1-((6-oxo-5-azaspiro[2.4]heptan-5-yl)methyl)-1,2,3,4-tetrahydroisoquinoline-2-carbonyl)-1-methylcyclohexane-1-carboxylic acid]: in assay [1], the EC50 was 19 nM. In assay [2], this molecule returned an IC50 of 5.5 nM.
For the molecule `Cn1ncc(COc2ccc(Cl)c3c2[C@@H](CN2CC4(CC4)CC2=O)N(C(=O)[C@@H]2CCCC[C@]2(C)C(=O)O)CC3)n1` [Example 206, (1S,2R)-2-((S)-5-chloro-8-((2-methyl-2H-1,2,3-triazol-4-yl)methoxy)-1-((6-oxo-5-azaspiro[2.4]heptan-5-yl)methyl)-1,2,3,4-tetrahydroisoquinoline-2-carbonyl)-1-methylcyclohexane-1-carboxylic acid], the EC50 in assay [1] came out at 34 nM. In addition, the IC50 in assay [2] was 6.6 nM.
For `Cn1nnc(COc2ccc(Cl)c3c2[C@@H](CN2CC4(CC4)CC2=O)N(C(=O)[C@@H]2C[C@@H]4C[C@@H]4C[C@]2(C)C(=O)O)CC3)c1C(F)F` [Example 207, (1R,3S,4R,6S)-4-((S)-5-chloro-8-((5-(difluoromethyl)-1-methyl-1H-1,2,3-triazol-4-yl)methoxy)-1-((6-oxo-5-azaspiro[2.4]heptan-5-yl)methyl)-1,2,3,4-tetrahydroisoquinoline-2-carbonyl)-3-methylbicyclo[4.1.0]heptane-3-carboxylic acid], in that order: 0.89 nM and 5.1 nM.
On to `Cn1nnc(COc2ccc(Cl)c3c2[C@@H](CN2CC4(CC4)CC2=O)N(C(=O)[C@@H]2C[C@H]4C[C@H]4C[C@]2(C)C(=O)O)CC3)c1C(F)F` [Example 208, (1S,3S,4R,6R)-4-((S)-5-chloro-8-((5-(difluoromethyl)-1-methyl-1H-1,2,3-triazol-4-yl)methoxy)-1-((6-oxo-5-azaspiro[2.4]heptan-5-yl)methyl)-1,2,3,4-tetrahydroisoquinoline-2-carbonyl)-3-methylbicyclo[4.1.0]heptane-3-carboxylic acid], for which the EC50 in assay [1] was 3300 nM. For the same molecule, in assay [2], the IC50 is 580 nM.
For `C[C@]1(C(=O)O)CCCC[C@H]1C(=O)N1CCc2c(Cl)ccc(OC3CCn4cnnc43)c2[C@H]1CN1CC2(CC2)CC1=O` (stereo partly drawn) [Example 209, (1S,2R)-2-((1S)-5-chloro-8-((6,7-dihydro-5H-pyrrolo [2,1-c][1,2,4]triazol-7-yl)oxy)-1-((6-oxo-5-azaspiro[2.4]heptan-5-yl)methyl)-1,2,3,4-tetrahydroisoquinoline-2-carbonyl)-1-methylcyclohexane-1-carboxylic acid], in that order: 290 nM and 8.4 nM.
For `[2H][C@@H]1C[C@@H](C(=O)N2CCc3c(Cl)ccc(OCc4nnn(C)c4C(F)F)c3[C@H]2CN2CC3(CC3)CC2=O)[C@@](C)(C(=O)O)C[C@@H]1[2H]` [Example 210, (1S,2R,4S,5R)-2-((S)-5-chloro-8-((5-(difluoromethyl)-1-methyl-1H-1,2,3-triazol-4-yl)methoxy)-1-((6-oxo-5-azaspiro[2.4]heptan-5-yl)methyl)-1,2,3,4-tetrahydroisoquinoline-2-carbonyl)-1-methylcyclohexane-1-carboxylic-4,5-d2 acid], in that order: 0.24 nM and 5.9 nM.
For `Cn1cccc(COc2ccc(Cl)c3c2[C@@H](CN2CC4(CC4)CC2=O)N(C(=O)[C@@H]2CCCC[C@]2(C)C(=O)O)CC3)c1=O` [Example 211, (1S,2R)-2-((S)-5-chloro-8-((1-methyl-2-oxo-1,2-dihydropyridin-3-yl)methoxy)-1-((6-oxo-5-azaspiro[2.4]heptan-5-yl)methyl)-1,2,3,4-tetrahydroisoquinoline-2-carbonyl)-1-methylcyclohexane-1-carboxylic acid], in that order: 43 nM and 6.8 nM.

Source of the values: patent publication US12098148B2, “Therapeutic compounds” (C4X Discovery Limited, priority 2018, dated 2024).
